Columns and labels:
Assay type in all cases: in vivo
[1] = tested on: barnyardgrass (Echinochloa crus-galli); test: Test A preemergence, directed soil spray, visual injury rating; settings: 0 is no effect, 100 is complete control
In short: (§1)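 Compounds in a surfactant-containing solvent were applied as a directed soil spray preemergence, or postemergence to plants 2-10 cm tall at the one- to two-leaf stage, in loam-sand blend. After about 10 d in the greenhouse, injury was rated visually against untreated controls on a 0-100 scale (100 = complete control).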

[2] = tested on: foxtail, giant (giant foxtail, Setaria faberii); test: as above; settings: 0 is no effect, 100 is complete control
In short: as §1

kochia (Kochia scoparia) [3] = test: as above; settings: 0 is no effect, 100 is complete control
In short: as §1

[4] = tested on: pigweed (Amaranthus retroflexus); test: as above; settings: 0 is no effect, 100 is complete control
In short: as §1

[5] = tested on: ragweed (common ragweed, Ambrosia elatior); test: as above; settings: 0 is no effect, 100 is complete control
In short: as §1

[6] = tested on: ryegrass, It. (Italian ryegrass, Lolium multiflorum); test: as above; settings: 0 is no effect, 100 is complete control
In short: as §1

[7] = tested on: barnyardgrass (Echinochloa crus-galli); test: Test B flooded paddy test, visual rating; settings: Flood, 250 g ai/ha, applied to paddy water, rated after 13 to 15 d
In short: (§2)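 Plants grown to the 2-leaf stage. At treatment, pots were flooded to 3 cm above the soil, compound was applied directly to the paddy water, and that depth was held throughout. After 13 to 15 d in the greenhouse, response was rated visually against controls on a 0 (no effect) to 100 (complete control) scale.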

[8] = tested on: ducksalad (Heteranthera limosa); test: Test B flooded paddy test, visual rating; settings: Flood, 250 g ai/ha, applied to paddy water, rated after 13 to 15 d
In short: as §2

rice (Oryza sativa) = test: Test B flooded paddy test, visual rating; settings: Flood, 250 g ai/ha, applied to paddy water, rated after 13 to 15 d
In short: as §2

[9] = tested on: sedge, umbrella (small-flower umbrella sedge, Cyperus difformis); test: Test B flooded paddy test, visual rating; settings: Flood, 250 g ai/ha, applied to paddy water, rated after 13 to 15 d
In short: as §2

[10] = tested on: barnyardgrass (Echinochloa crus-galli); test: Test A postemergence application, visual injury rating; settings: 0 to 100 scale, 0 no effect, 100 complete control
In short: as §1

[11] = tested on: blackgrass (Alopecurus myosuroides); test: as above; settings: 0 to 100 scale, 0 no effect, 100 complete control
In short: as §1

corn (Zea mays) = test: as above; settings: for Corn plant response rating: 0 to 100 scale, 0 no effect, 100 complete control
In short: as §1

[12] = tested on: foxtail, giant (giant foxtail, Setaria faberii); test: as above; settings: for Foxtail, Giant plant response rating: 0 to 100 scale, 0 no effect, 100 complete control
In short: as §1

[13] = tested on: galium (catchweed bedstraw, Galium aparine); test: as above; settings: for Galium plant response rating: 0 to 100 scale, 0 no effect, 100 complete control
In short: as §1

kochia (Kochia scoparia) [14] = test: as above; settings: for Kochia plant response rating: 0 to 100 scale, 0 no effect, 100 complete control
In short: as §1

[15] = tested on: pigweed (Amaranthus retroflexus); test: as above; settings: for Pigweed plant response rating: 0 to 100 scale, 0 no effect, 100 complete control
In short: as §1

[16] = tested on: ragweed (common ragweed, Ambrosia elatior); test: as above; settings: for Ragweed plant response rating: 0 to 100 scale, 0 no effect, 100 complete control
In short: as §1

[17] = tested on: ryegrass, It. (Italian ryegrass, Lolium multiflorum); test: as above; settings: for Ryegrass, It. plant response rating: 0 to 100 scale, 0 no effect, 100 complete control
In short: as §1

[18] = tested on: wheat (Triticum aestivum); test: as above; settings: for Wheat plant response rating: 0 to 100 scale, 0 no effect, 100 complete control
In short: as §1

[19] = 31 g ai/ha, 0 is no effect, 100 is complete control

SMILES	Plant response rating (0 to 100 scale), Barnyardgrass ([1]; 31 g ai/ha)	Plant response rating (0 to 100 scale), Barnyardgrass ([1]; 125 g ai/ha)	Plant response rating (0 to 100 scale), Foxtail, Giant ([2]; 31 g ai/ha)	Plant response rating (0 to 100 scale), Foxtail, Giant ([2]; 125 g ai/ha)	Plant response rating (0 to 100 scale), Kochia (kochia (Kochia scoparia) [3]; 31 g ai/ha)	Plant response rating (0 to 100 scale), Kochia (kochia (Kochia scoparia) [3]; 125 g ai/ha)	Plant response rating (0 to 100 scale), Pigweed ([4]; 31 g ai/ha)	Plant response rating (0 to 100 scale), Pigweed ([4]; 125 g ai/ha)	Plant response rating (0 to 100 scale), Ragweed ([5]; 31 g ai/ha)	Plant response rating (0 to 100 scale), Ragweed ([5]; 125 g ai/ha)	Plant response rating (0 to 100 scale), Ryegrass, It. ([6]; 31 g ai/ha)	Plant response rating (0 to 100 scale), Ryegrass, It. ([6]; 125 g ai/ha)	Barnyardgrass plant response rating (0 to 100 scale, 0 is no effect, 100 is complete control) [7]	Ducksalad plant response rating (0 to 100 scale, 0 is no effect, 100 is complete control) [8]	Rice plant response rating (0 to 100 scale, 0 is no effect, 100 is complete control) (rice (Oryza sativa))	Sedge, Umbrella plant response rating (0 to 100 scale, 0 is no effect, 100 is complete control) [9]	Barnyardgrass plant response rating ([10]; 31 g ai/ha)	Barnyardgrass plant response rating ([10]; 125 g ai/ha)	Blackgrass plant response rating ([11]; 31 g ai/ha)	Blackgrass plant response rating ([11]; 125 g ai/ha)	also measured
Cc1nn(C)c(=O)c(-c2ccc(Cl)c3ccsc23)c1O [Compound 55]	0	0	0	0	0	20	0	60	0	0	80	100	0	0	0	0	0	10	0	10	Corn plant response rating (corn (Zea mays); 31 g ai/ha): 0; Corn plant response rating (corn (Zea mays); 125 g ai/ha): 0; Foxtail, Giant plant response rating ([12]; 31 g ai/ha): 0; Foxtail, Giant plant response rating ([12]; 125 g ai/ha): 0; Galium plant response rating ([13]; 31 g ai/ha): 80; Galium plant response rating ([13]; 125 g ai/ha): 100; Kochia plant response rating (kochia (Kochia scoparia) [14]; 31 g ai/ha): 40; Kochia plant response rating (kochia (Kochia scoparia) [14]; 125 g ai/ha): 100; Pigweed plant response rating ([15]; 31 g ai/ha): 30; Pigweed plant response rating ([15]; 125 g ai/ha): 60; Ragweed plant response rating ([16]; 31 g ai/ha): 0; Ragweed plant response rating ([16]; 125 g ai/ha): 30; Ryegrass, It. plant response rating ([17]; 31 g ai/ha): 40; Ryegrass, It. plant response rating ([17]; 125 g ai/ha): 70; Wheat plant response rating ([18]; 31 g ai/ha): 0; Wheat plant response rating ([18]; 125 g ai/ha): 0
Cc1nn(C)c(=O)c(-c2ccc(Cl)c3sccc23)c1OC(=O)c1ccccc1 [Compound 57]	0	0	0	0	50	0	0	0	0	0	0	10	0	0	0	0	0	0	0	0	Corn plant response rating (corn (Zea mays); 31 g ai/ha): 0; Corn plant response rating (corn (Zea mays); 125 g ai/ha): 0; Foxtail, Giant plant response rating ([12]; 31 g ai/ha): 0; Foxtail, Giant plant response rating ([12]; 125 g ai/ha): 0; Galium plant response rating ([13]; 31 g ai/ha): 0; Galium plant response rating ([13]; 125 g ai/ha): 0; Kochia plant response rating (kochia (Kochia scoparia) [14]; 31 g ai/ha): 0; Kochia plant response rating (kochia (Kochia scoparia) [14]; 125 g ai/ha): 0; Pigweed plant response rating ([15]; 31 g ai/ha): 0; Pigweed plant response rating ([15]; 125 g ai/ha): 0; Ragweed plant response rating ([16]; 31 g ai/ha): 0; Ragweed plant response rating ([16]; 125 g ai/ha): 0; Ryegrass, It. plant response rating ([17]; 31 g ai/ha): 0; Ryegrass, It. plant response rating ([17]; 125 g ai/ha): 0; Wheat plant response rating ([18]; 31 g ai/ha): 0; Wheat plant response rating ([18]; 125 g ai/ha): 0
COC(=O)Oc1c(C)nn(C)c(=O)c1-c1ccc(Cl)c2sccc12 [Compound 59]	0	0	0	0	10	20	0	0	50	30	10	10	0	0	20	0	0	0	0	0	Plant response rating (0 to 100 scale), Corn (corn (Zea mays); [19]): 0; Corn plant response rating (corn (Zea mays); 125 g ai/ha): 20; Plant response rating (0 to 100 scale), Foxtail, Giant [12, 19]: 0; Foxtail, Giant plant response rating ([12]; 125 g ai/ha): 0; Plant response rating (0 to 100 scale), Galium [13, 19]: 20; Galium plant response rating ([13]; 125 g ai/ha): 80; Plant response rating (0 to 100 scale), Kochia (kochia (Kochia scoparia) [14]; [19]): 0; Kochia plant response rating (kochia (Kochia scoparia) [14]; 125 g ai/ha): 60; Plant response rating (0 to 100 scale), Pigweed [15, 19]: 0; Pigweed plant response rating ([15]; 125 g ai/ha): 30; Plant response rating (0 to 100 scale), Ragweed [16, 19]: 0; Ragweed plant response rating ([16]; 125 g ai/ha): 0; Plant response rating (0 to 100 scale), Ryegrass, It. [17, 19]: 0; Ryegrass, It. plant response rating ([17]; 125 g ai/ha): 10; Plant response rating (0 to 100 scale), Wheat [18, 19]: 0; Wheat plant response rating ([18]; 125 g ai/ha): 0

Source: patent US10750743B2, “Pyridazinone herbicides” (E.I. DU PONT DE NEMOURS AND COMPANY, priority 2015, dated 2020)
